In brackets after ≈: the same amount, converted by molar mass.
System: infectious agents (strains tested)
Assay: organism not typed
Type: cell-based

Question: For `C[C@@H](c1ncncc1F)[C@](O)(Cn1cncn1)c1ccc(F)cc1F` [Voriconazole], which MIC (Absidia spp, read-out: Geometric Mean MIC) is on record?
Answer: 40.3 µg/mL (≈ 115 µM)

Question: And the MIC (Absidia spp, read-out: MIC[90])?
Answer: 8 to 128 µg/mL (≈ 22.9 to 366 µM)

Question: And the MIC (Apophysomyces spp, read-out: Geometric Mean MIC)?
Answer: 42.2 µg/mL (≈ 121 µM)

Question: What about the MIC (Apophysomyces spp, read-out: MIC[90]) of the same compound?
Answer: 16 to 128 µg/mL (≈ 45.8 to 366 µM)

Question: What about the MIC (Aspergillus flavus, read-out: Geometric Mean MIC) of the same compound?
Answer: 0.339 µg/mL (≈ 0.97 µM)

Question: What about the MIC (Aspergillus flavus, read-out: MIC[90]) of the same compound?
Answer: 1 µg/mL (≈ 2.86 µM)

Question: And the MIC (Aspergillus fumigatus, read-out: Geometric Mean MIC)?
Answer: 0.282 µg/mL (≈ 0.807 µM)

Question: And the MIC (Aspergillus fumigatus, read-out: MIC[90])?
Answer: 0.5 µg/mL (≈ 1.43 µM)

Question: What about the MIC (Aspergillus nidulans, read-out: Geometric Mean MIC) of the same compound?
Answer: 0.07 µg/mL (≈ 0.2 µM)

Question: And the MIC (Aspergillus nidulans, read-out: MIC[90])?
Answer: 0.031 to 0.125 µg/mL (≈ 0.0887 to 0.358 µM)

Question: And the MIC (Aspergillus niger, read-out: Geometric Mean MIC)?
Answer: 0.48 µg/mL (≈ 1.37 µM)

Question: And the MIC (Aspergillus niger, read-out: MIC[90])?
Answer: 2 µg/mL (≈ 5.73 µM)

Question: And the MIC (Aspergillus sydowii, read-out: Geometric Mean MIC)?
Answer: 0.397 µg/mL (≈ 1.14 µM)

Question: What about the MIC (Aspergillus sydowii, read-out: MIC[90]) of the same compound?
Answer: 0.25 to 1 µg/mL (≈ 0.716 to 2.86 µM)

Question: What about the MIC (Aspergillus terreus, read-out: Geometric Mean MIC) of the same compound?
Answer: 0.312 µg/mL (≈ 0.893 µM)

Question: What about the MIC (Aspergillus terreus, read-out: MIC[90]) of the same compound?
Answer: 0.5 µg/mL (≈ 1.43 µM)

Question: And the MIC (Aspergillus ustus, read-out: Geometric Mean MIC)?
Answer: 1.19 µg/mL (≈ 3.4 µM)

Question: What about the MIC (Aspergillus ustus, read-out: MIC[90]) of the same compound?
Answer: 0.25 to 2 µg/mL (≈ 0.716 to 5.73 µM)

Question: What about the MIC (Bipolaris spp, read-out: Geometric Mean MIC) of the same compound?
Answer: 1 µg/mL (≈ 2.86 µM)

Question: And the MIC (Bipolaris spp, read-out: MIC[90])?
Answer: 1 µg/mL (≈ 2.86 µM)

Question: And the MIC (Bjerkandera adusta, read-out: Geometric Mean MIC)?
Answer: 0.216 µg/mL (≈ 0.618 µM)

Question: What about the MIC (Bjerkandera adusta, read-out: MIC[90]) of the same compound?
Answer: 0.25 µg/mL (≈ 0.716 µM)

Question: What about the MIC (Candida albicans, read-out: Geometric Mean MIC) of the same compound?
Answer: 0.021 µg/mL (≈ 0.0601 µM)

Question: And the MIC (Candida albicans, read-out: MIC[90])?
Answer: 0.063 µg/mL (≈ 0.18 µM)

Question: And the MIC (Candida dubliniensis, read-out: Geometric Mean MIC)?
Answer: 0.028 µg/mL (≈ 0.0802 µM)

Question: What about the MIC (Candida dubliniensis, read-out: MIC[90]) of the same compound?
Answer: 0.125 µg/mL (≈ 0.358 µM)

Question: And the MIC (Candida tropicalis, read-out: Geometric Mean MIC)?
Answer: 0.075 µg/mL (≈ 0.215 µM)

Question: And the MIC (Candida tropicalis, read-out: MIC[90])?
Answer: 0.5 µg/mL (≈ 1.43 µM)

Question: What about the MIC (Clavispora lusitaniae, Candida lusitaniae, read-out: Geometric Mean MIC) of the same compound?
Answer: 0.023 µg/mL (≈ 0.0658 µM)

Question: What about the MIC (Clavispora lusitaniae, Candida lusitaniae, read-out: MIC[90]) of the same compound?
Answer: 0.063 µg/mL (≈ 0.18 µM)

Question: What about the MIC (Cryptococcus neoformans, read-out: Geometric Mean MIC) of the same compound?
Answer: 0.054 µg/mL (≈ 0.155 µM)

Question: What about the MIC (Cryptococcus neoformans, read-out: MIC[90]) of the same compound?
Answer: 0.125 µg/mL (≈ 0.358 µM)

Question: What about the MIC (Curvularia spp, read-out: Geometric Mean MIC) of the same compound?
Answer: 0.125 µg/mL (≈ 0.358 µM)

Question: What about the MIC (Curvularia spp, read-out: MIC[90]) of the same compound?
Answer: 0.125 µg/mL (≈ 0.358 µM)

Question: And the MIC (Debaryomyces hansenii, Candida famata, read-out: Geometric Mean MIC)?
Answer: 0.072 µg/mL (≈ 0.206 µM)

Question: And the MIC (Debaryomyces hansenii, Candida famata, read-out: MIC[90])?
Answer: 0.008 to 0.5 µg/mL (≈ 0.0229 to 1.43 µM)

Question: What about the MIC (Diutina rugosa, Candida rugosa, read-out: Geometric Mean MIC) of the same compound?
Answer: 0.072 µg/mL (≈ 0.206 µM)

Question: What about the MIC (Diutina rugosa, Candida rugosa, read-out: MIC[90]) of the same compound?
Answer: 0.5 µg/mL (≈ 1.43 µM)

Question: And the MIC (Dujonia zeylanoides, Candida zeylanoides, read-out: Geometric Mean MIC)?
Answer: 0.039 µg/mL (≈ 0.112 µM)

Question: And the MIC (Dujonia zeylanoides, Candida zeylanoides, read-out: MIC[90])?
Answer: 0.008 to 0.125 µg/mL (≈ 0.0229 to 0.358 µM)

Question: What about the MIC (Epidermophyton floccosum, read-out: Geometric Mean MIC) of the same compound?
Answer: 0.015 µg/mL (≈ 0.0429 µM)

Question: And the MIC (Epidermophyton floccosum, read-out: MIC[90])?
Answer: 0.016 µg/mL (≈ 0.0458 µM)

Question: What about the MIC (Exophiala dermatidis, read-out: Geometric Mean MIC) of the same compound?
Answer: 0.063 µg/mL (≈ 0.18 µM)

Question: And the MIC (Exophiala dermatidis, read-out: MIC[90])?
Answer: 0.063 µg/mL (≈ 0.18 µM)

Question: What about the MIC (Exophiala dermatitidis, Wangiella dermatitidis, read-out: Geometric Mean MIC) of the same compound?
Answer: 1 µg/mL (≈ 2.86 µM)

Question: What about the MIC (Exophiala dermatitidis, Wangiella dermatitidis, read-out: MIC[90]) of the same compound?
Answer: 1 µg/mL (≈ 2.86 µM)

Question: And the MIC (Exophiala jeanselmei, read-out: Geometric Mean MIC)?
Answer: 0.794 µg/mL (≈ 2.27 µM)

Question: And the MIC (Exophiala jeanselmei, read-out: MIC[90])?
Answer: 0.5 to 1 µg/mL (≈ 1.43 to 2.86 µM)

Question: And the MIC (Fonsecae pedrosoi, read-out: Geometric Mean MIC)?
Answer: 0.5 µg/mL (≈ 1.43 µM)

Question: And the MIC (Fonsecae pedrosoi, read-out: MIC[90])?
Answer: 0.5 µg/mL (≈ 1.43 µM)

Question: What about the MIC (Fusarium spp, read-out: Geometric Mean MIC) of the same compound?
Answer: 4.42 µg/mL (≈ 12.6 µM)

Question: And the MIC (Fusarium spp, read-out: MIC[90])?
Answer: 16 µg/mL (≈ 45.8 µM)

Question: And the MIC (Kluyveromyces marxianus, Candida kefyr, read-out: Geometric Mean MIC)?
Answer: 0.031 µg/mL (≈ 0.0887 µM)

Question: And the MIC (Kluyveromyces marxianus, Candida kefyr, read-out: MIC[90])?
Answer: 0.031 µg/mL (≈ 0.0887 µM)

Question: What about the MIC (Lodderomyces parapsilosis, Candida parapsilosis, read-out: Geometric Mean MIC) of the same compound?
Answer: 0.036 µg/mL (≈ 0.103 µM)

Question: What about the MIC (Lodderomyces parapsilosis, Candida parapsilosis, read-out: MIC[90]) of the same compound?
Answer: 0.125 µg/mL (≈ 0.358 µM)

Question: And the MIC (Meyerozyma guilliermondii, Candida guilliermondii, read-out: Geometric Mean MIC)?
Answer: 0.112 µg/mL (≈ 0.321 µM)

Question: What about the MIC (Meyerozyma guilliermondii, Candida guilliermondii, read-out: MIC[90]) of the same compound?
Answer: 8 µg/mL (≈ 22.9 µM)

Question: And the MIC (Microsporum canis, read-out: Geometric Mean MIC)?
Answer: 0.018 µg/mL (≈ 0.0515 µM)

Question: What about the MIC (Microsporum canis, read-out: MIC[90]) of the same compound?
Answer: 0.031 µg/mL (≈ 0.0887 µM)

Question: What about the MIC (Mucor spp, read-out: Geometric Mean MIC) of the same compound?
Answer: 24.7 µg/mL (≈ 70.6 µM)

Question: And the MIC (Mucor spp, read-out: MIC[90])?
Answer: 1 to 128 µg/mL (≈ 2.86 to 366 µM)

Question: What about the MIC (Nakaseomyces glabratus, Candida glabrata, read-out: Geometric Mean MIC) of the same compound?
Answer: 0.305 µg/mL (≈ 0.873 µM)

Question: And the MIC (Nakaseomyces glabratus, Candida glabrata, read-out: MIC[90])?
Answer: 2 µg/mL (≈ 5.73 µM)

Question: What about the MIC (Paecilomyces spp, read-out: Geometric Mean MIC) of the same compound?
Answer: 0.324 µg/mL (≈ 0.928 µM)

Question: And the MIC (Paecilomyces spp, read-out: MIC[90])?
Answer: 0.031 to 2 µg/mL (≈ 0.0887 to 5.73 µM)

Question: What about the MIC (Papiliotrema laurentii, Cryptococcus laurentii, read-out: Geometric Mean MIC) of the same compound?
Answer: 0.25 µg/mL (≈ 0.716 µM)

Question: And the MIC (Papiliotrema laurentii, Cryptococcus laurentii, read-out: MIC[90])?
Answer: 0.25 µg/mL (≈ 0.716 µM)

Question: And the MIC (Penicillium spp, read-out: Geometric Mean MIC)?
Answer: 0.622 µg/mL (≈ 1.78 µM)

Question: What about the MIC (Penicillium spp, read-out: MIC[90]) of the same compound?
Answer: 2 µg/mL (≈ 5.73 µM)

Question: And the MIC (Pichia kudriavzevii, Candida krusei, read-out: Geometric Mean MIC)?
Answer: 0.346 µg/mL (≈ 0.991 µM)

Question: What about the MIC (Pichia kudriavzevii, Candida krusei, read-out: MIC[90]) of the same compound?
Answer: 0.5 µg/mL (≈ 1.43 µM)

Question: What about the MIC (Rhizomucor spp, read-out: Geometric Mean MIC) of the same compound?
Answer: 2 µg/mL (≈ 5.73 µM)

Question: What about the MIC (Rhizomucor spp, read-out: MIC[90]) of the same compound?
Answer: 2 µg/mL (≈ 5.73 µM)

Question: And the MIC (Rhizopus spp, read-out: Geometric Mean MIC)?
Answer: 8 µg/mL (≈ 22.9 µM)

Question: What about the MIC (Rhizopus spp, read-out: MIC[90]) of the same compound?
Answer: 1 to 32 µg/mL (≈ 2.86 to 91.6 µM)

Question: And the MIC (Saccharomyces cerevisiae, read-out: Geometric Mean MIC)?
Answer: 0.05 µg/mL (≈ 0.143 µM)

Question: What about the MIC (Saccharomyces cerevisiae, read-out: MIC[90]) of the same compound?
Answer: 0.125 µg/mL (≈ 0.358 µM)

Question: What about the MIC (Scedosporium apiospermum, read-out: Geometric Mean MIC) of the same compound?
Answer: 0.098 µg/mL (≈ 0.281 µM)

Question: And the MIC (Scedosporium apiospermum, read-out: MIC[90])?
Answer: 0.5 µg/mL (≈ 1.43 µM)

Question: And the MIC (Scedosporium boydii, Pseudallescheria boydii, read-out: Geometric Mean MIC)?
Answer: 0.25 µg/mL (≈ 0.716 µM)

Question: What about the MIC (Scedosporium boydii, Pseudallescheria boydii, read-out: MIC[90]) of the same compound?
Answer: 0.125 to 0.5 µg/mL (≈ 0.358 to 1.43 µM)

Question: What about the MIC (Trichophyton mentagrophytes, read-out: Geometric Mean MIC) of the same compound?
Answer: 0.038 µg/mL (≈ 0.109 µM)

Question: And the MIC (Trichophyton mentagrophytes, read-out: MIC[90])?
Answer: 0.25 µg/mL (≈ 0.716 µM)

Question: What about the MIC (Trichophyton rubrum, read-out: Geometric Mean MIC) of the same compound?
Answer: 0.021 µg/mL (≈ 0.0601 µM)

Question: What about the MIC (Trichophyton rubrum, read-out: MIC[90]) of the same compound?
Answer: 0.063 µg/mL (≈ 0.18 µM)

Question: What about the MIC (Trichophyton tonsurans, read-out: Geometric Mean MIC) of the same compound?
Answer: 0.043 µg/mL (≈ 0.123 µM)

Question: What about the MIC (Trichophyton tonsurans, read-out: MIC[90]) of the same compound?
Answer: 0.063 µg/mL (≈ 0.18 µM)

Question: What about the MIC (Trichosporon spp, read-out: Geometric Mean MIC) of the same compound?
Answer: 0.125 µg/mL (≈ 0.358 µM)

Question: What about the MIC (Trichosporon spp, read-out: MIC[90]) of the same compound?
Answer: 0.125 µg/mL (≈ 0.358 µM)

— patent US20090226527A1, “Particulate-stabilized injectable pharmacutical compositions of posaconazole” (priority 2004, published 2009)
